Experimental data reported in patent publication US20180360810A1, “NUPHARIDINE COMPOUNDS AND DERIVATIVES THEREOF FOR THE TREATMENT OF CYSTEINE PROTEASE RELATED DISEASES” (B. G. NEGEV TECHNOLOGIES AND APPLICATIONS LTD., AT …, priority 2015, published 2018).

Assays:
Assay type in all cases: biochemical
Human Cathepsin L = target: T1, Human Cathepsin L (Homo sapiens, UniProt P07711); experiment: Cathepsin L fluorometric inhibition assay; conditions: substrate Ac-FR-AFC; CTSL Assay Buffer; molarity calculated on assumed molecular weight of 526 daltons; read-out: IC50 (Nanomolar)
T1 construct: purchased
T1 sequence (P07711 114-333): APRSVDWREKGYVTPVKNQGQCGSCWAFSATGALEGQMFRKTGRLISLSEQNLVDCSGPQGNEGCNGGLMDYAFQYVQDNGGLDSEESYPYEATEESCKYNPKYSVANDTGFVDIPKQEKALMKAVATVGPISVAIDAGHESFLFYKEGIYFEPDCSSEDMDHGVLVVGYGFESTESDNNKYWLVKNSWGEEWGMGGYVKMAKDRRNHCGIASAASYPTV
Experimental: (§1) Inhibition assays were performed in triplicates using 96 well plates transparent for Calpain, Trypsin, Papain, Cathepsin L and Cathepsin B (167008; Nunc, Roskilde, Denmark), or black for Cathepsin S, Cathepsin D and Insulyzin (ide) (Greiner 96 Polystyrol GRE96fb) according to manufacturers' instructions. Briefly, reaction mixture of 100 μl contained: 45 μl of enzyme in assay buffer, 5 μl of inhibitors diluted in DMSO. 50 μl substrate prepared in assay buffer according to manufacturers' instructions. The inhibitor was serially diluted in DMSO to concentrations from 0.0075 μg/μL to 0.0000075 μg/μL. 5 μl DMSO was added to control sample. Cathepsin substrate mix was added last just before starting the fluorometric measurement. Data was collected for 1.5 h at 60 sec intervals. Molarity of inhibitors were calculated based on assumed molecular weight of 526 daltons as a reference value for comparative evaluations.

Human rCathepsin D = target: T2, Human rCathepsin D (Homo sapiens, UniProt P07339); experiment: Cathepsin D fluorometric inhibition assay; conditions: substrate ES001; pH 3.5; molarity calculated on assumed molecular weight of 526 daltons; read-out: IC50 (Nanomolar)
T2 construct: purchased
T2 sequence (P07339 65-412): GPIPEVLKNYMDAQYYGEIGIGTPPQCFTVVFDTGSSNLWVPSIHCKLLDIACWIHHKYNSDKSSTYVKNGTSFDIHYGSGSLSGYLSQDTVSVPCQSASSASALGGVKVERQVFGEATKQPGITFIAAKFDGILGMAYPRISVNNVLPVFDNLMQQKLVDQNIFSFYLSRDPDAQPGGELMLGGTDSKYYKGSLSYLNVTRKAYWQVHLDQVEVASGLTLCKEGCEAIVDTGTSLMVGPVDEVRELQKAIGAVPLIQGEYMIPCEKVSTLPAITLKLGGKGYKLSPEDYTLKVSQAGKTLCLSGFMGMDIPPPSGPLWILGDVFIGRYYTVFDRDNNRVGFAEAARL
Experimental: as §1

Human Insulyzin (ide) = target: T3, Human Insulyzin (ide) (Homo sapiens, UniProt P14735); experiment: Insulyzin (ide) fluorometric inhibition assay; conditions: substrate ES005; pH 7.5; molarity calculated on assumed molecular weight of 526 daltons; read-out: IC50 (Nanomolar)
T3 construct: purchased
T3 sequence (P14735 1-1019): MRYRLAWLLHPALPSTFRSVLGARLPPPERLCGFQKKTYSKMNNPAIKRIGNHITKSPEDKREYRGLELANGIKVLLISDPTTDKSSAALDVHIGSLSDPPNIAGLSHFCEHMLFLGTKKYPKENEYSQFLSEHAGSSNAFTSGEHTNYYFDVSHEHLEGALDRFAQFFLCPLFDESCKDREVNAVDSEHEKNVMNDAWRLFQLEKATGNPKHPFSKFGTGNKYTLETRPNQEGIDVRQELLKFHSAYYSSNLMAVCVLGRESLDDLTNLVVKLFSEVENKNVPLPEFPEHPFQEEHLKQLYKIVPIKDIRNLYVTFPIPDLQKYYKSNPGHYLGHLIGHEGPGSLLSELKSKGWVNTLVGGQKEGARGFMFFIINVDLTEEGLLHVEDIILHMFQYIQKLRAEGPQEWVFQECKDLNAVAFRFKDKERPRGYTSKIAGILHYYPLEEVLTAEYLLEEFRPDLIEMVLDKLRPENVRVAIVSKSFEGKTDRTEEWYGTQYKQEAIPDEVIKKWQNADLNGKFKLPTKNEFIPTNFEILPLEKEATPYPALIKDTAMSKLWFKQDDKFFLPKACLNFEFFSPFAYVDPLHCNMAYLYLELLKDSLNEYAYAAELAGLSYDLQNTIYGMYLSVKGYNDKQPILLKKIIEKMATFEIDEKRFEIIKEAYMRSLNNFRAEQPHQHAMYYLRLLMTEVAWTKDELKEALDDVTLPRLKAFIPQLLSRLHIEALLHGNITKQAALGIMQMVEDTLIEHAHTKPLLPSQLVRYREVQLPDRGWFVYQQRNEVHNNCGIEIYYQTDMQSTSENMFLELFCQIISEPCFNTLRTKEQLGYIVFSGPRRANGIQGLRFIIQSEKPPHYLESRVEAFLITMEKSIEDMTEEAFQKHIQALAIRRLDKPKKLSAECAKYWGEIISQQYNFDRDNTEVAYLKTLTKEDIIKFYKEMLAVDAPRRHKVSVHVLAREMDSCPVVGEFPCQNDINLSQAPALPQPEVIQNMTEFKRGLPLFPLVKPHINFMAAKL
Experimental: as §1

Human Cathepsin B = target: T4, Human Cathepsin B (Homo sapiens, UniProt P07858); experiment: Cathepsin B inhibition assay, Casein FITC; conditions: substrate Casein FITC; pH 6.5; molarity calculated on assumed molecular weight of 526 daltons; read-out: IC50 (Nanomolar)
T4 construct: purchased
Experimental: as §1

Human Cathepsin S = target: T5, Human Cathepsin S (Homo sapiens, UniProt P25774); experiment: Cathepsin S fluorometric inhibition assay; conditions: substrate ES002; pH 4.5; molarity calculated on assumed molecular weight of 526 daltons; read-out: IC50 (Nanomolar)
T5 construct: purchased
T5 sequence (P25774 115-331): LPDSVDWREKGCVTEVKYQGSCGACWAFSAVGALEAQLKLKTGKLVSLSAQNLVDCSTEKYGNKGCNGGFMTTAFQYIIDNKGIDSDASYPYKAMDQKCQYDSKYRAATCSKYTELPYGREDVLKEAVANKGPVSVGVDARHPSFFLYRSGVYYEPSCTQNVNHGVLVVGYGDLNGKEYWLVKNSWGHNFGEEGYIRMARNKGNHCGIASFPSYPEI
Experimental: as §1

Trypsin = Trypsin inhibition assay, Casein FITC; conditions: substrate Casein FITC; 0.3M potassium chloride, 0.1 mM EDTA, 3 mM DTT pH 6.5
Experimental: as §1
The specificity of the reaction was tested by treatment of trypsin, a serine protease with the above mentioned compounds and no inhibitory activity was found (as shown in FIG. 2).

Calpain = Calpain inhibition assay, Casein FITC; conditions: substrate Casein FITC; 0.3M potassium chloride, 0.1 mM EDTA, 3 mM DTT pH 6.5, 2 mM CaCl2
Experimental: as §1

papain = target: T6, papain (Carica papaya, UniProt P00784); experiment: Protease Fluorescent Detection Kit, inhibition of papain activity; conditions: FITC-labeled casein substrate; 10 μg papain in 50 μL; various concentrations of inhibitor
T6 sequence (P00784 134-345): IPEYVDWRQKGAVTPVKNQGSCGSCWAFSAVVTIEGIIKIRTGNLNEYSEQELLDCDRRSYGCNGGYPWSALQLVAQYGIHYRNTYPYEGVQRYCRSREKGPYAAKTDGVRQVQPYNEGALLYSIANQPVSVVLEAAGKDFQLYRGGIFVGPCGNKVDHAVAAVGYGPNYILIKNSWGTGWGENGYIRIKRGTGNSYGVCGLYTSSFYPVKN
Experimental: The Protease Fluorescent Detection Kit of Sigma Aldrich was used for measurement of protease activity using fluorometry. In exemplary embodiments, the method is based on the proteolytic hydrolysis of a proprietary formulation of a FITC-labeled casein substrate. The reaction mixture contained in a final volume of 50 μL, 10 μg papain and various concentrations of the candidate inhibitor.

Row | Compound | IC50 (Human Cathepsin L) | IC50 (Human rCathepsin D) | IC50 (Human Insulyzin (ide)) | IC50 (Human Cathepsin B) | IC50 (Human Cathepsin S) | IC50 (Microgram/ml / Nanomolar) (Trypsin) | IC50 (Microgram/ml / Nanomolar) (Calpain) | inhibition of papain activity (FIG. 1) (papain)
1 | 6 6′dihydroxybinupharidine [Nup-3 sigma] | 0.266 nM | 0.07 nM | 0.33 nM | 21.8 nM | 0.08 nM | no inhibition | no inhibition | 
2 | 6 hydroxybinupharidine [Nup-4 sigma] | 0.056 nM | 0.32 nM | 0.85 nM | 29.4 nM |  |  |  | 
3 | C1=[N+](CCCCc2ccccc2)CCCC12CC1(C=[N+](CCCCCc3ccccc3)CC1)CS2 (stereo not drawn) [6-61] |  |  |  |  |  |  |  | demonstrated an inhibition of papain activity
